Laboratory results reported in patent US20240409574A1, “SMALL MOLECULES FOR DOT1L DEGRADATION AND USES THEREOF” (DANA-FARBER CANCER INSTITUTE, INC., priority 2021, published 2024).

Tests used:
DOT1L [1] = molecular target: T1, DOT1L (Homo sapiens, UniProt Q8TEK3); assay: Western blot of DOT1L degradation in MV411 cells; assay type: cell-based; design: endogenous in cells; settings: FIG. 5A, 10A
Target sequence in this assay (Q8TEK3 whole entry): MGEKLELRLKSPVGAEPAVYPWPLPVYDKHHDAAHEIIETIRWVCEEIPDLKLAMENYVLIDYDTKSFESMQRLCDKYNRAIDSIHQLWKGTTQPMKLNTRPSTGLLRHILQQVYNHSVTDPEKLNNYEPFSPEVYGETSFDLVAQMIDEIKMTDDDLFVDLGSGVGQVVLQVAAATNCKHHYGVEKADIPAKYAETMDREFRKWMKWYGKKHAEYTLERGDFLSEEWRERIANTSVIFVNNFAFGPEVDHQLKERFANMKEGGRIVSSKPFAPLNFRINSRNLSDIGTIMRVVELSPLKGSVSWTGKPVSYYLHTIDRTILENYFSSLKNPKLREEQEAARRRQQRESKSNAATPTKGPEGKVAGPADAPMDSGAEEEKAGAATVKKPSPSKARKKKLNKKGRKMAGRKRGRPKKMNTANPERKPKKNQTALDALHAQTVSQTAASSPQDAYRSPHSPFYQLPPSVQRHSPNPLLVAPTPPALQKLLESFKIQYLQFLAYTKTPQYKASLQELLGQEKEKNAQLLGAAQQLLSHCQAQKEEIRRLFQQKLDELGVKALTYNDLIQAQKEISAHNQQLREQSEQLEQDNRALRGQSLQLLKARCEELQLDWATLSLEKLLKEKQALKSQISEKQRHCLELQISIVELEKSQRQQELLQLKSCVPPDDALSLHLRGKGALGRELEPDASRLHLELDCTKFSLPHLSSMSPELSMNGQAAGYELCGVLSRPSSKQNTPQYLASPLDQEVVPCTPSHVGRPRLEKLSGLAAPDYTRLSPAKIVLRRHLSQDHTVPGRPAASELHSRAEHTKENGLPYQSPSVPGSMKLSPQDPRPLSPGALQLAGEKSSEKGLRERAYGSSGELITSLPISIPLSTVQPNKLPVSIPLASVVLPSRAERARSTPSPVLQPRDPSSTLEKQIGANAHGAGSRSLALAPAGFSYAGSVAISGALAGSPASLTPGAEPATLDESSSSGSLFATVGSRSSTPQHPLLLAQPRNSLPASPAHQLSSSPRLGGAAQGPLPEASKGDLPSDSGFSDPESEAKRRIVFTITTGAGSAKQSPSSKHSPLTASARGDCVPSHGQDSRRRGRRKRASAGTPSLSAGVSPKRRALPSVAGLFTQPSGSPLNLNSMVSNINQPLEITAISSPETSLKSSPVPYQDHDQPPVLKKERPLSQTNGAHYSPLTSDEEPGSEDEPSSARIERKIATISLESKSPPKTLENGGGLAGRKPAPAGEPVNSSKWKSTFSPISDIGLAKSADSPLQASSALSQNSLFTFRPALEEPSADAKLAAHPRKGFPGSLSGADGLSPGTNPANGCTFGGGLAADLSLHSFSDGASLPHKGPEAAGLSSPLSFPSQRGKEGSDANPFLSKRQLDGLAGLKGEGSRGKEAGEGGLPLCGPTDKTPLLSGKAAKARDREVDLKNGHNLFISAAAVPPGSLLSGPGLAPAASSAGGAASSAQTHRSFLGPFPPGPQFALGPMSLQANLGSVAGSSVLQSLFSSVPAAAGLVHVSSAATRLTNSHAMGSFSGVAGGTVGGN

EOL1 cells = assay: Cell proliferation assay in EOL1 cells (trypan blue cell counts); assay type: cell-based, human; settings: FIG. 3, 4B, 6B, 7, 8, 9B
Protocol: Example 15: Cell Proliferation Assays in EOL1 (Human Eosinophilic Leukaemia) Cells with Inventive Bifunctional Compounds
(§1) EOL1 cells were seeded into a 6-well plate at a density of 0.25×10^6 cells/well and then treated compounds with indicated concentration and incubated for the indicated times. After staining with trypan blue, cell counts were performed using a Countess® II FL Automated Cell Counter (ThermoFisher Scientific).

DOT1L [2] = molecular target: T1, DOT1L; assay: Western blot of DOT1L degradation in EOL1 cells; assay type: cell-based; design: degraded DOT1L in EOL1 cells; endogenous in cells; host or cells: EOL1; settings: FIG. 4A, 6A, 9A
Target sequence in this assay (Q8TEK3 whole entry): as above
DOT1L:CRBN = DOT1L:CRBN (Homo sapiens, UniProt Q8TEK3+Q96SW2); assay: DOT1L:CRBN-DDB1 dimerization assay (AlphaScreen); assay type: binding; settings: FIG. 2, GST-CRBN-DDB1 and 6xHIS DOT1L 125 nM
Sequence of DOT1L:CRBN (Q8TEK3 whole entry, species assumed): as the sequence (Q8TEK3 whole entry) above
Sequence of DOT1L:CRBN (Q96SW2 whole entry, species assumed): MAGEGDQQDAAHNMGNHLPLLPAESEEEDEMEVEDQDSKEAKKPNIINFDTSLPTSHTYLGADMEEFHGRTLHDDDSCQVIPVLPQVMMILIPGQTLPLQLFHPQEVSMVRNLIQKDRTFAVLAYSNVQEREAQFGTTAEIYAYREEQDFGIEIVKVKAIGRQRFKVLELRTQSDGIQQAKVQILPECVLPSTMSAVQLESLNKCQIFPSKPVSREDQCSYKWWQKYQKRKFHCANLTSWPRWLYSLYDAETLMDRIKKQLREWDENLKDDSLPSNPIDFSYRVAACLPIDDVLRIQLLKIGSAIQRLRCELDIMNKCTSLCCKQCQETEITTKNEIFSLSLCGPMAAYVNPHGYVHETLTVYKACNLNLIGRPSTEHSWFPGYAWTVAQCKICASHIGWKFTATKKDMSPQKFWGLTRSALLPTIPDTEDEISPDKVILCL
Sequence of DOT1L:CRBN (Q16531 whole entry partner, species assumed): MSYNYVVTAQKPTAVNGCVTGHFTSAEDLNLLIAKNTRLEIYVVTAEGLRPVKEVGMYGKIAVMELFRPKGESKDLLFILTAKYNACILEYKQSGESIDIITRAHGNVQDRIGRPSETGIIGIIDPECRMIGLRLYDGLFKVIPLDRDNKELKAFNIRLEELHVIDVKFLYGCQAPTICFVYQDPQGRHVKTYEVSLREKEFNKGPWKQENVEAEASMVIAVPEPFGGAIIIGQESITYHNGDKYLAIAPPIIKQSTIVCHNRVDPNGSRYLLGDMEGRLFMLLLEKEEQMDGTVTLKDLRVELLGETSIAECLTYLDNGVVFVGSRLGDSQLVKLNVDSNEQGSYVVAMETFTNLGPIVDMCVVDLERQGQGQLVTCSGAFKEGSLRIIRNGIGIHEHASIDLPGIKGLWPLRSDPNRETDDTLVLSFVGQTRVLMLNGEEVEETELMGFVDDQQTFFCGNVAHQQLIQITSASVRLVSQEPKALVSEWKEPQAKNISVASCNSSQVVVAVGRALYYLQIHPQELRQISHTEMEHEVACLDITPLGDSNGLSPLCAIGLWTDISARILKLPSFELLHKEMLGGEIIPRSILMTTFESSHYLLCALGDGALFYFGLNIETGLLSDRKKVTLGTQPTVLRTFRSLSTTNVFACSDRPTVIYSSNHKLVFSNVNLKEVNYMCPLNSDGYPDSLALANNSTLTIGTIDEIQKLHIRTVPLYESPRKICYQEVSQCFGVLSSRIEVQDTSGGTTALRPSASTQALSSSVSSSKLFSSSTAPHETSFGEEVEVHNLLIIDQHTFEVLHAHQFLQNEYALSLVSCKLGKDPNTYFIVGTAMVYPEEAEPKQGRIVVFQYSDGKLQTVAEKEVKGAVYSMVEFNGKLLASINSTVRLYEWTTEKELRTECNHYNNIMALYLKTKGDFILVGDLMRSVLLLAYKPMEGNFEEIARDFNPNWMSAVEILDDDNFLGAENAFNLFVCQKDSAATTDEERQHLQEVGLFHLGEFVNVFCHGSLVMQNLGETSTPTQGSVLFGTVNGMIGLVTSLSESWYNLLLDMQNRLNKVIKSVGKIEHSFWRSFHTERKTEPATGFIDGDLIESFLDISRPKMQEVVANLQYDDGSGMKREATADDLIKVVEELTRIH
Protocol: Example 14: DOT1L:Cereblon (CRBN)-DNA Damage-Binding Protein 1 (DDB1)/DOT1L Dimerization Assay
GST-CRBN-DDB1 and DOT1L (6×HIS-tagged) were both diluted to 125 nM in assay buffer (50 mM 2-[4-(2-Hydroxyethyl)piperazin-1-yl]ethane-1-sulfonic acid (HEPES) pH 7.4, 150 mM NaCl, and 0.01% Tween®, 2, 0.1% bovine serum albumin (BSA)), and 20 μL of protein mixture was added to each well of a 384-well AlphaPlate™ (PerkinElmer®). Compounds were then added at 100 nL per well from DMSO stock plates using a Janus®, Workstation (PerkinElmer®). Following a 1-hour incubation at room temperature, 20 μL Nickel Chelate AlphaLISA® Acceptor and Glutathione AlphaLISA® Donor beads (PerkinElmer®) diluted to 20 ng/μl in assay buffer was added to each well. After a 1-hour incubation at room temperature, luminescence was measured on the Envision® 2104 plate reader (PerkinElmer®). Data were analyzed and plotted using GraphPad PRISM v6 and dimerization amplitude, mean, and s.d. values were determined using the ‘Gaussian’ analysis module.
DOT1L:CRBN dimerization by inventive bifunctional compounds 2, 3, and 6, and pomalidomide and EPZ5676 was assessed by AlphaScreen® assay.

MV411 cells = assay: Cell proliferation assay in MV411 cells (trypan blue cell counts); assay type: cell-based, human; settings: FIG. 5B, 10B
Protocol: Example 16: Cell Proliferation Assays in MV411 (Human Myelomonocytic Leukemia) Cells with Inventive Bifunctional Compounds
as §1, with “MV411” for “EOL1”

DOT1L [3] = molecular target: T1, DOT1L; assay: DOT1L fluorescence polarization (FP) displacement assay; assay type: binding; settings: FIG. 1
Protocol: Example 13: Cellular Disruptor of Telomeric Silencing 1-Like (DOT1L) Fluorescence Polarization (FP) Displacement Assay
DOT1L FP displacement assays were conducted with inventive bifunctional compounds 2, 3, and 6, and pomalidomide and positive control EPZ5676 at different concentrations [M], measured in [M] per mP.
Target sequence in this assay (Q8TEK3 whole entry, species assumed): as the sequence (Q8TEK3 whole entry) above

SEMK2 cells = assay: Cell proliferation assay in SEMK2 cells (trypan blue cell counts); assay type: cell-based; settings: FIG. 11
Protocol: Example 17: Cell Proliferation Assays in SEMK2 (B Acute Lymphoblastic Leukemia) Cells with Inventive Bifunctional Compounds
as §1, with “SEMK2” for “EOL1”

THP1 cells = assay: Cell proliferation assay in THP1 cells (trypan blue cell counts); assay type: cell-based; settings: FIG. 12
Protocol: Example 18: Cell Proliferation Assays in THP1 (Acute Monocytic Leukemia) Cells with Inventive Bifunctional Compounds
as §1, with “THP1” for “EOL1”

Compound | DOT1L degradation in MV411 cells (DOT1L [1]) | EOL1 cell viability (EOL1 cells) | DOT1L degradation in EOL1 cells (DOT1L [2]) | formation of ternary complexes between DOT1L and CRBN (DOT1L:CRBN) | MV411 cell viability (MV411 cells) | DOT1L binding via displacement of FITC-probe in FP assay (DOT1L [3]) | SEMK2 cell viability (SEMK2 cells) | THP1 cell viability (THP1 cells)
CC(C)N(C[C@H]1O[C@@H](n2cnc3c(NCCCCNC(=O)CCCCCCCCCCCCCCCNc4cccc5c4C(=O)N(C4CCC(=O)NC4=O)C5=O)ncnc32)[C@H](O)[C@@H]1O)C1CC(CCc2nc3cc(C(C)(C)C)ccc3[nH]2)C1 (stereo partly drawn) [Compound 2, N-(4-((9-((2R,3R,4S,5R)-5-((3-(2-(5-(tert-butyl)-1H-benzo[d]imidazol-2-yl)ethyl)cyclobutyl)(isopropyl)amino)methyl)-3,4-dihydroxytetrahydrofuran-2-yl)-9H-purin-6-yl)amino)butyl)-16-((2-(2,6-dioxopiperidin-3-yl)-1,3-dioxoisoindolin-4-ylamino)hexadecanamide] | degraded DOT1L in MV411 cells and in a dose dependent manner up to 10.0 μM | reduced EOL1 cell viability in a dose dependent manner and at early time points | degraded DOT1L in EOL1 cells and in a dose dependent manner up to 2.5 μM | induced the formation of ternary complexes between the DOT1L and CRBN | reduced MV411 cell viability in a dose dependent manner and at early time points | bound DOT1L via displacement of fluorescein isothiocyanate (FITC)-probe in FP assay |  | 
CC(C)N(C[C@H]1O[C@@H](n2cnc3c(NCCCCNC(=O)CCCCCCCCCCCCCCCNc4cccc5c4C(=O)N(C4CCC(=O)NC4=O)C5=O)ncnc32)[C@H](O)[C@@H]1O)C1CC(CCc2nc3cc(C(C)(C)C)ccc3[nH]2)C1 (some centres unmarked) [Compound 3] |  | reduced EOL1 cell viability in a dose dependent manner and at early time points | degraded DOT1L in EOL1 cells and in a dose dependent manner up to 5.0 μM | induced the formation of ternary complexes between the DOT1L and CRBN |  | bound DOT1L via displacement of fluorescein isothiocyanate (FITC)-probe in FP assay |  | 
Cc1ncsc1-c1ccc(CNC(=O)[C@H]2C[C@H](O)CN2C(=O)[C@H](NC(=O)CCCCCCCNC(=O)CCCC(=O)NCCCCNc2ncnc3c2ncn3[C@@H]2O[C@H](CN(C(C)C)C3CC(CCc4nc5cc(C(C)(C)C)ccc5[nH]4)C3)[C@@H](O)[C@H]2O)C(C)(C)C)cc1 (stereo partly drawn) [Compound 4, N1-(4-((9-((2R,3R,4S,5R)-5-(((3-(2-(5-(tert-butyl)-1H-benzo[d]imidazol-2-yl)ethyl)cyclobutyl)(isopropyl)amino)methyl)-3,4-dihydroxytetrahydrofuran-2-yl)-9H-purin-6-yl)amino)butyl)-N5-(8-(((R)-1-((2R,4S)-4-hydroxy-2-((4-(4-methylthiazol-5-yl)benzyl)carbamoyl)pyrrolidin-1-yl)-3,3-dimethyl-1-oxobutan-2-yl)amino)-8-oxooctyl)glutaramide] |  | did not reduce EOL1 cell viability in a dose dependent manner |  |  |  |  |  | 
CC(C)N(C[C@H]1O[C@@H](n2ccc3c(NCCCCNC(=O)CCCCCCCCCCCCCCCNc4cccc5c4C(=O)N(C4CCC(=O)NC4=O)C5=O)ncnc32)[C@H](O)[C@@H]1O)C1CC(CCc2nc3cc(C(C)(C)C)ccc3[nH]2)C1 (stereo partly drawn) [Compound 5, N-(4-((7-((2R,3R,4S,5R)-5-(((3-(2-(5-(tert-butyl)-1H-benzo[d]imidazol-2-yl)ethyl)cyclobutyl)(isopropyl)amino)methyl)-3,4-dihydroxytetrahydrofuran-2-yl)-7H-pyrrolo[2,3-d]pyrimidin-4-yl)amino)butyl)-16-((2-(2,6-dioxopiperidin-3-yl)-1,3-dioxoisoindolin-4-yl)amino)hexadecanamide] |  | did not reduce EOL1 cell viability in a dose dependent manner and at early time points |  |  |  |  |  | 
CC(C)N(CCCNC(=O)Nc1ccc(C(C)(C)C)cc1)C[C@H]1O[C@H](n2cnc3c(NCCCCNC(=O)CCCCCCCCCCCCCCCNc4cccc5c4C(=O)N(C4CCC(=O)NC4=O)C5=O)ncnc32)[C@H](O)[C@@H]1O (stereo partly drawn) [Compound 6, N-(4-((9-((2S,3R,4S,5R)-5-(((3-(3-(4-(tert-butyl)phenyl)ureido)propyl)(isopropyl)amino)methyl)-3,4-dihydroxytetrahydrofuran-2-yl)-9H-purin-6-yl)amino)butyl)-16-((2-(2,6-dioxopiperidin-3-yl)-1,3-dioxoisoindolin-4-yl)amino)hexadecanamide] | degraded DOT1L in MV411 cells and in a dose dependent manner up to 5.0 μM | reduced EOL1 cell viability in a dose dependent manner and at early time points | degraded DOT1L in EOL1 cells and in a dose dependent manner up to 5.0 μM | induced the formation of ternary complexes between the DOT1L and CRBN | reduced MV411 cell viability in a dose dependent manner and at early time points | bound DOT1L via displacement of fluorescein isothiocyanate (FITC)-probe in FP assay | reduced SEMK2 cell viability in a dose dependent manner and at early time points | reduced THP1 cell viability in a dose dependent manner and at early time points
